Measurements taken from patent publication US8895717B2, “Delivery of siRNA by neutral lipid compositions” (The Board of Regents of the University of Texas System, priority 2005, dated 2014).
d = 2'-deoxy (DNA); r = 2'-OH (RNA)

Tests used:
SKOV3 cells = experiment: Cytotoxicity assay (MTT), SKOV3; assay type: cell-based, human
Experimental: The medium was exchanged after 48 hours with increasing concentrations of docetaxel (obtained from Aventis Pharma, Bridgewater, N.J.) dissolved in ethanol (final concentration range, 0.1-10,000 nmol/L prepared in medium) or cisplatin (purchased from LKT Laboratories, Inc., St. Paul, Minn.) dissolved in water. After a 96-hour incubation, 50 μL of 0.15% 3-(4,5-dimethylthiazol-2-yl)-2,5-diphenyltetrazolium bromide was added to each well and incubated for 2 hours. The supernatant was removed, and cells were dissolved in 100 μL DMSO. The absorbance at 570 nm was recorded using a FALCON microplate reader (Becton Dickinson Labware, Bedford, Mass.), and cell survival expressed as a percent increase or decrease above control conditions, after subtracting blank A570 readings. The IC50 concentration was determined by finding the A570 reading midpoint between maximal and minimal readings and finding the chemotherapy concentration that intersects the growth curve at that A570 reading.

SKOV3ip1 cells = experiment: In vivo therapy with DOPC-FAK siRNA, SKOV3ip1 model; set-up: species or system nude mice; conditions: for Incidence (%) / No. Nodules: siRNA in DOPC twice weekly, docetaxel 50 μg weekly
Experimental: siRNA for in vivo delivery was incorporated into the phospholipid 1,2-dioleoyl-sn-glycero-3-phosphatidylcholine (DOPC). DOPC and siRNA were mixed in the presence of excess tertiary-butanol at a ratio of […], as previously described (Landen et al., 2005). Tween-20 was added to the mixture at a ratio of 1:19. The mixture was vortexed, frozen in an acetone/dry ice bath, and lyophilized. Before in vivo administration, this preparation was hydrated with normal (0.9%) saline at a concentration of 15 μg/ml to achieve the desired dose of 150-200 μl per injection. To estimate the quantity of siRNA not taken up by liposomes free siRNA was separated from liposomes by using filter units with a 30,000 nominal molecular weight limit (Millipore Corp, Billerica, Mass.). The liposomal suspension was added to the filters and centrifuged at 5,000 g for 40 min at room temperature. Fractions were collected, the material trapped in the filter was reconstituted with 0.9% saline, and the amount of siRNA in the collected fraction and eluent were measured by spectrophotometry.
To produce tumors, SKOV3ip1, Hey A8-MDR cells (1×10^6 cells/0.2 ml of HBSS) and Hey A8 cells (2.5×10^5 cells/0.2 ml of HBSS) were injected interperitoneally (i.p.) into the mice. For in vivo injections, cells were trypsinized and centrifuged at 1000 rpm for 7 minutes at 4° C., washed twice with PBS and reconstituted in serum-free Hank's balanced salt solution (HBSS, Life Technologies, Carlsbad, Calif.). Only single-cell suspensions with >95% viability, as determined by trypan blue exclusion, were used for the in vivo injections. Mice (n=10 per group) were monitored for adverse effects of therapy and were sacrificed on day 35 (SKOV3ip1) or day 28 (HeyA8 or HeyA8-MDR) or when any of the mice began to appear moribund. Mouse weight, tumor weight, and tumor distribution were recorded. Tissue specimens were snap frozen for lysate preparation, fixed in formalin for paraffin embedding or frozen on OCT compound (Miles, Inc., Elkhart, Ind.) for frozen slide preparation.
Based on the results of preliminary dose-response studies, a series of three separate therapy studies were initiated using the optimal FAK siRNA dosage. Tumor cells were injected i.p. and 7 days later, the mice were randomly assigned to five treatment groups: empty liposome twice weekly, non-specific control […] siRNA (3 μg) twice weekly, control FAK siRNA (3 μg) twice weekly in combination with 50 μg docetaxel weekly, FAK siRNA twice weekly and FAK siRNA (3 μg) twice weekly in addition to 50 μg docetaxel weekly.
The SKOV3ip1 or HeyA8 ovarian cancer cells were implanted into the peritoneal cavity of athymic nude mice for experiments designed to test the therapeutic potential of FAK-targeted inhibition of gene expression. Seven days later, therapy was started according to the following five treatment groups: 1) empty liposomes; 2) non-specific siRNA-DOPC; 3) docetaxel plus non-specific siRNA-DOPC; 4) FAK targeted siRNA-DOPC; and 5) docetaxel plus FAK-targeted siRNA-DOPC. The animals were sacrificed after 4 weeks of therapy and a necropsy was performed. The data for these therapies' effects on SKOV3ip1 and HeyA8 are summarized in FIGS. 6A and 6B, respectively. […] Treatment with FAK siRNA alone or docetaxel plus control siRNA were effective in inhibiting tumor growth (54 to 74%) in both cell lines compared with control (FIG. 13).

“FAK siRNA: sense r(CCACCUGGGCCAGUAUUAU)d(TT), antisense r(AUAAUACUGGCCCAGGUGG)d(TT); for in vivo delivery incorporated into DOPC (sense CCACCUGGGCCAGUAUUAUTT; antisense AUAAUACUGGCCCAGGUGGTT; sugars from the 5' end r19 d2, backbone not given here)” was tested, and the “fold greater docetaxel cytotoxicity after FAK down-regulation” value (SKOV3 cells; SKOV3, siRNA 48 hours before docetaxel, at 50% cytotoxicity) was roughly 5 fold, the “Incidence (%)” value (SKOV3ip1 cells) was 70% and the “No. Nodules” value (SKOV3ip1 cells) was 3.7.
“control siRNA: sense r(UUUUCCGAACGUGUCACGU)dTT, antisense r(ACGUGACACGUUCGGAGAA)dTT, no homology with human mRNA; in vivo in DOPC (sense UUUUCCGAACGUGUCACGUTT; antisense ACGUGACACGUUCGGAGAATT; sugars from the 5' end r19 d2, backbone not given here)” was tested, and the “effect on sensitivity to docetaxel” value (SKOV3 cells; all ovarian cancer cell lines tested) was “did not affect sensitivity of ovarian cancer cells to docetaxel”, the “efficacy compared with empty liposomes” value (SKOV3ip1 cells) was “not effective against SKOV3ip1 tumors” and the “Incidence (%)” value (SKOV3ip1 cells) was 100%. For the same substance, the “No. Nodules” value (SKOV3ip1 cells) was 15.
